Measured values reported in US20240158446A1, “CYCLIC COMPOUND HAVING SELECTIVE INHIBITORY ACTION ON KRAS OVER HRAS AND NRAS” (CHUGAI SEIYAKU KABUSHIKI KAISHA, priority 2021, published 2024).
Like-named read-outs stand apart in the source and are kept apart here. *1 amine or outer side, *2 acyl side, *3 side chain or, on linkers, in order; H or OH if unused. Where a SMILES comes first, the peptide text is derived from it. Bridges are numbered along the chain shown (N, C = ends). [ ]: non-standard residue; d: D form. The star is where a group is joined. hPhe(3,5-F2-4-CF3) = N[C@@H](CCc1cc(F)c(C(F)(F)F)c(F)c1)C(=O)O; hPhe(3-Cl-4-CF3) = N[C@@H](CCc1ccc(C(F)(F)F)c(Cl)c1)C(=O)O; NPrPhe(4-CF3) = CCCN[C@@H](Cc1ccc(C(F)(F)F)cc1)C(=O)O; NMeAbu(4,4,4-F3) = CN[C@@H](CC(F)(F)F)C(=O)O; X13 = O=C([C@@H](N[*:1])C1CC(F)(F)C1)[*:2]; NMeGly(cPent) = CN[C@H](C(=O)O)C1CCCC1; Pro(4,4-F2) = O=C(O)[C@@H]1CC(F)(F)CN1; NMeD = CN[C@@H](CC(=O)O)C(=O)O; NMeL = CN[C@@H](CC(C)C)C(=O)O; Morpholide = C1CN(*)CCO1; NMeA = CN[C@@H](C)C(=O)O; Ac5c = NC1(C(=O)O)CCCC1; Aze = O=C(O)[C@@H]1CCN1; Sar = CNCC(=O)O

Key:
[1] = target: GDP-bound KRAS wild-type protein (Homo sapiens, UniProt P01116); test: Binding to KRAS by surface plasmon resonance (SPR), Single Cycle Kinetics; conditions: GDP-bound KRAS wild-type protein, read-out: KRAS KD
GDP-bound KRAS wild-type protein, sequence (P01116 whole entry): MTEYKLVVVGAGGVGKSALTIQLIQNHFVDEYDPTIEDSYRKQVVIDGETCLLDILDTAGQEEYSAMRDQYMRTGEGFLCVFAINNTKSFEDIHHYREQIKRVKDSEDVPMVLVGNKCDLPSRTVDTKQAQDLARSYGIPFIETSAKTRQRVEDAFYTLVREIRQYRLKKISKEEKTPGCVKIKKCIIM

[2] = target: GDP-bound HRAS wild-type protein (Homo sapiens, UniProt P01112); test: Binding to HRAS by surface plasmon resonance (SPR), Single Cycle Kinetics; conditions: SPR, GDP-bound HRAS wild-type protein vs GDP-bound KRAS wild-type protein
GDP-bound HRAS wild-type protein, sequence (P01112 whole entry): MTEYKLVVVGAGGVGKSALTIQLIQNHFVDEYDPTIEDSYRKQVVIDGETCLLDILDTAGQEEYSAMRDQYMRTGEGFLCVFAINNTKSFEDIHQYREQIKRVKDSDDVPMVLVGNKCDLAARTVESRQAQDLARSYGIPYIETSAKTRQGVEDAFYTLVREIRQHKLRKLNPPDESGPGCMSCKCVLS

[3] = target: GDP-bound NRAS wild-type protein (Homo sapiens, UniProt P01111); test: Binding to NRAS by surface plasmon resonance (SPR), Single Cycle Kinetics; conditions: SPR, GDP-bound NRAS wild-type protein vs GDP-bound KRAS wild-type protein
GDP-bound NRAS wild-type protein, sequence (P01111 whole entry): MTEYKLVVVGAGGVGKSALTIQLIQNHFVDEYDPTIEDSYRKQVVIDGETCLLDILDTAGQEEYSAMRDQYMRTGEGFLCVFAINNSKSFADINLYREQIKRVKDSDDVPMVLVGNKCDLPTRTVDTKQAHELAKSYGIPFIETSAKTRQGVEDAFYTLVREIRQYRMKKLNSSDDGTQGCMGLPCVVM

[4] = SPR Single Cycle Kinetics, 1:1 binding model

Row | Kd [1, 4] [nM] | SMILES | HRAS/KRAS (ratio of KD value with respect to HRAS to KD value with respect to KRAS) [2] | NRAS/KRAS (ratio of KD value with respect to NRAS to KD value with respect to KRAS) [3] | HRAS/KRAS (ratio of KD value for HRAS to KD value for KRAS) [2] | NRAS/KRAS (ratio of KD value for NRAS to KD value for KRAS) [3] | other results
1 | 0.21 | CCCN1C(=O)CN(C)C(=O)CN(C)C(=O)[C@H](C2CC(F)(F)C2)NC(=O)[C@H](CC(C)C)N(C)C(=O)C[C@@H](C(=O)N2CCOCC2)N(C)C(=O)[C@H](C2CCCC2)N(C)C(=O)C2(CCCC2)NC(=O)[C@@H]2CCCN2C(=O)[C@H](CCc2cc(F)c(C(F)(F)F)c(F)c2)NC(=O)CN(C)C(=O)[C@@H]1Cc1ccc(C(F)(F)F)cc1 [PP0769] ([NMeL][X13][Sar][Sar][NPrPhe(4-CF3)][Sar][hPhe(3,5-F2-4-CF3)]P[Ac5c][NMeGly(cPent)][NMeD]-Morpholide; lactam N-11) | C (A compound having a KD ratio of 0.1 or more and less than 3 is denoted as C) | B (a compound having 3 or more and less than 10 is denoted as B) | – | – | –
2 | 1.6 | CC[C@H](C)[C@@H]1NC(=O)[C@H](CC)N(C)C(=O)C[C@@H](C(=O)N(C)C)N(C)C(=O)[C@H](C2CCCC2)N(C)C(=O)C2(CCC2)NC(=O)[C@@H]2C[C@H](N3CCC(F)(F)CC3)CN2C(=O)[C@H](CCc2cc(F)c(C(F)(F)F)c(F)c2)NC(=O)CN(C)C(=O)[C@H](Cc2ccc(C(F)(F)F)cc2)N2CCCCC[C@@H](C2=O)N(C)C(=O)CN(C)C1=O [PP0731] | B (a compound having 3 or more and less than 10 is denoted as B) | B (a compound having 3 or more and less than 10 is denoted as B) | – | – | –

Continued, compound first:

Row | SMILES | Kd [1, 4] [nM] | HRAS/KRAS (ratio of KD value with respect to HRAS to KD value with respect to KRAS) [2] | NRAS/KRAS (ratio of KD value with respect to NRAS to KD value with respect to KRAS) [3] | HRAS/KRAS (ratio of KD value for HRAS to KD value for KRAS) [2] | NRAS/KRAS (ratio of KD value for NRAS to KD value for KRAS) [3] | other results
3 | CCO[C@@H]1C[C@H]2C(=O)NC3(CCC3)C(=O)N(C)[C@@H](C3CCCC3)C(=O)N(C)[C@H](C(=O)N(C)CC)CC(=O)N(C)[C@@H](CC3CC3)C(=O)N[C@@H]([C@@H](C)CC)C(=O)N(C)CC(=O)N(C)[C@H]3C/C=C\CCN(C3=O)[C@@H](Cc3ccc(C(F)(F)F)cc3)C(=O)N(C)CC(=O)N[C@@H](CCc3cc(F)c(C(F)(F)F)c(F)c3)C(=O)N2C1 [PP1301] | – | – | – | – | – | Kd ([1]; SPR, Single Cycle Kinetics, 1:1 binding model): 0.083 nM; HRAS/KRAS (ratio of KD value for HRAS to KD value for KRAS) ([2]; KD ratio class): A (a compound having 10 or more and less than 20 is denoted as A); NRAS/KRAS (ratio of KD value for NRAS to KD value for KRAS) ([3]; KD ratio class): A (a compound having 10 or more and less than 20 is denoted as A)
4 | CCO[C@@H]1C[C@H]2C(=O)NC3(CCC3)C(=O)N(C)[C@@H](C3CCCC3)C(=O)N(CC)[C@H](C(=O)N(C)C)CC(=O)N(C)[C@@H](CC)C(=O)N[C@@H]([C@@H](C)CC)C(=O)N(C)CC(=O)N(C)[C@H]3CCCCCN(C3=O)[C@@H](Cc3ccc(C(F)(F)F)cc3)C(=O)N(C)CC(=O)N[C@@H](CCc3cc(F)c(C(F)(F)F)c(F)c3)C(=O)N2C1 [PP0633] | 2.3 | B (a compound having 3 or more and less than 10 is denoted as B) | B (a compound having 3 or more and less than 10 is denoted as B) | – | – | –
5 | CCCN1C(=O)[C@@H]2CCN2C(=O)[C@H](C)N(C)C(=O)[C@H]([C@@H](C)CC)NC(=O)[C@H](CC(F)(F)F)N(C)C(=O)C[C@@H](C(=O)N2CCOCC2)N(C)C(=O)[C@H](C2CCCC2)N(C)C(=O)C2(CCCC2)NC(=O)[C@@H]2CC(F)(F)CN2C(=O)[C@H](CCc2ccc(C(F)(F)F)c(Cl)c2)NC(=O)CN(C)C(=O)[C@@H]1Cc1ccc(C(F)(F)F)cc1 [PP0203] ([NMeAbu(4,4,4-F3)]I[NMeA][Aze][NPrPhe(4-CF3)][Sar][hPhe(3-Cl-4-CF3)][Pro(4,4-F2)][Ac5c][NMeGly(cPent)][NMeD]-Morpholide; lactam N-11) | 0.094 | – | – | C (A compound having a KD ratio of 0.1 or more and less than 3 is denoted as C) | C (A compound having a KD ratio of 0.1 or more and less than 3 is denoted as C) | –
6 | C#CC[C@H]1C(=O)N[C@@H]([C@@H](C)CC)C(=O)N(C)CC(=O)N(C)[C@H]2C/C=C\CCN(C2=O)[C@@H](Cc2ccc(C(F)(F)F)cc2)C(=O)N(C)CC(=O)N[C@@H](CCc2ccc(C(F)(F)F)c(Cl)c2)C(=O)N2CC3(CC3)C[C@H]2C(=O)NC2(CC(C)(C)C2)C(=O)N(C)[C@@H](C2CCCC2)C(=O)N(C)[C@H](C(=O)N(C)C)CC(=O)N1C [PP2980] | – | – | – | B (a compound having 3 or more and less than 10 is denoted as B) | A (a compound having 10 or more and less than 20 is denoted as A) | Kd ([1]; SPR, Single Cycle Kinetics): 0.23 nM
